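Protocol summary: plate cells (96-well), add compound at 5 concentrations, incubate 48 h, interpolate endpoints linearly. GI50: concentration for 50% inhibition of growth. At the TGI there is no net growth.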
Key:
Experiment in all cases: NCI-60 cell line screen, 48 h; in the data active means GI50 below about 0.43 µM; inactive means the rest
SF-268 CNS = system: SF-268 CNS
U251 CNS = system: U251 CNS
OVCAR-3 ovarian = system: OVCAR-3 ovarian
T-47D breast = system: T-47D breast
NCI-H226 lung = system: NCI-H226 lung
HL-60(TB) leukemia = system: HL-60(TB) leukemia
DU-145 prostate = system: DU-145 prostate
M14 melanoma = system: M14 melanoma
HT29 colon = system: HT29 colon
SF-295 CNS = system: SF-295 CNS
SNB-75 CNS = system: SNB-75 CNS
BT-549 breast = system: BT-549 breast
OVCAR-5 ovarian = system: OVCAR-5 ovarian
HCC-2998 colon = system: HCC-2998 colon
UACC-62 melanoma = system: UACC-62 melanoma
UACC-257 melanoma = system: UACC-257 melanoma
PC-3 prostate = system: PC-3 prostate
SK-OV-3 ovarian = system: SK-OV-3 ovarian
RPMI-8226 leukemia = system: RPMI-8226 leukemia
UO-31 renal = system: UO-31 renal
OVCAR-4 ovarian = system: OVCAR-4 ovarian
ACHN renal = system: ACHN renal
HCT-15 colon = system: HCT-15 colon
HCT-116 colon = system: HCT-116 colon
NCI/ADR-RES ovarian = system: NCI/ADR-RES ovarian
SK-MEL-5 melanoma = system: SK-MEL-5 melanoma
RXF 393 renal = system: RXF 393 renal
K-562 leukemia = system: K-562 leukemia
COLO 205 colon = system: COLO 205 colon
SNB-19 CNS = system: SNB-19 CNS
786-0 renal = system: 786-0 renal
EKVX NSCLC = system: EKVX NSCLC
MDA-MB-231 breast = system: MDA-MB-231 breast
HS 578T breast = system: HS 578T breast
SF-539 CNS = system: SF-539 CNS
CAKI-1 renal = system: CAKI-1 renal
SK-MEL-28 melanoma = system: SK-MEL-28 melanoma
IGROV1 ovarian = system: IGROV1 ovarian
CCRF-CEM leukemia = system: CCRF-CEM leukemia
HOP-92 NSCLC = system: HOP-92 NSCLC
NCI-H522 lung = system: NCI-H522 lung
NCI-H460 lung = system: NCI-H460 lung
MALME-3M melanoma = system: MALME-3M melanoma
A549 NSCLC = system: A549 NSCLC
KM12 colon = system: KM12 colon
OVCAR-8 ovarian = system: OVCAR-8 ovarian
SN12C renal = system: SN12C renal
SR leukemia = system: SR leukemia
NCI-H23 lung = system: NCI-H23 lung
SK-MEL-2 melanoma = system: SK-MEL-2 melanoma
MCF7 breast = system: MCF7 breast
LOX IMVI melanoma = system: LOX IMVI melanoma
TK-10 renal = system: TK-10 renal
MDA-MB-435 = system: MDA-MB-435
A498 renal = system: A498 renal
HOP-62 NSCLC = system: HOP-62 NSCLC
MOLT-4 leukemia = system: MOLT-4 leukemia
SW-620 colon = system: SW-620 colon

O=C(/C=C/c1ccccc1Cl)Nc1ncc(Cc2cc(Cl)ccc2Cl)s1
inactive: GI50 (SF-268 CNS) 12.5 µM | GI50 (U251 CNS) 2.9 µM | GI50 (OVCAR-3 ovarian) 3.44 µM | GI50 (T-47D breast) 6.72 µM | GI50 (NCI-H226 lung) 9.17 µM | GI50 (HL-60(TB) leukemia) 1.24 µM | GI50 (DU-145 prostate) 2.04 µM | GI50 (M14 melanoma) 2.04 µM | GI50 (HT29 colon) 2.46 µM | GI50 (SF-295 CNS) 2.34 µM | GI50 (SNB-75 CNS) 0.576 µM | GI50 (BT-549 breast) 1.15 µM | GI50 (OVCAR-5 ovarian) 2.36 µM | GI50 (HCC-2998 colon) 2.71 µM | GI50 (UACC-62 melanoma) 3.27 µM | GI50 (UACC-257 melanoma) 9.11 µM | GI50 (PC-3 prostate) 3.86 µM | GI50 (SK-OV-3 ovarian) 7.39 µM | GI50 (RPMI-8226 leukemia) 1.36 µM | GI50 (UO-31 renal) 6.52 µM | GI50 (OVCAR-4 ovarian) 21.3 µM | GI50 (ACHN renal) 8.28 µM | GI50 (HCT-15 colon) 0.634 µM | GI50 (HCT-116 colon) 0.939 µM | GI50 (NCI/ADR-RES ovarian) 2.99 µM | GI50 (SK-MEL-5 melanoma) 2.8 µM | GI50 (RXF 393 renal) 0.916 µM | GI50 (COLO 205 colon) 1.21 µM | GI50 (SNB-19 CNS) 4.23 µM | GI50 (786-0 renal) 5.16 µM | GI50 (EKVX NSCLC) 2.4 µM | GI50 (MDA-MB-231 breast) 2.66 µM | GI50 (HS 578T breast) 1.14 µM | GI50 (SF-539 CNS) 2.79 µM | GI50 (CAKI-1 renal) 4.23 µM | GI50 (SK-MEL-28 melanoma) 9.29 µM | GI50 (IGROV1 ovarian) 1.31 µM | GI50 (CCRF-CEM leukemia) 0.909 µM | GI50 (HOP-92 NSCLC) 1.3 µM | GI50 (NCI-H522 lung) 0.7 µM | GI50 (NCI-H460 lung) 3.6 µM | GI50 (MALME-3M melanoma) 4.54 µM | GI50 (A549 NSCLC) 2.09 µM | GI50 (KM12 colon) 1.21 µM | GI50 (OVCAR-8 ovarian) 4.03 µM | GI50 (SN12C renal) 1.95 µM | GI50 (SR leukemia) 0.534 µM | GI50 (NCI-H23 lung) 0.686 µM | GI50 (SK-MEL-2 melanoma) 3.01 µM | GI50 (MCF7 breast) 0.674 µM | GI50 (LOX IMVI melanoma) 1.85 µM | GI50 (TK-10 renal) 7.13 µM | GI50 (A498 renal) 0.975 µM | GI50 (HOP-62 NSCLC) 6.14 µM | GI50 (MOLT-4 leukemia) 1.21 µM | GI50 (SW-620 colon) 1.25 µM
13.6 µM: TGI (SF-539 CNS)
> 63.8 µM: TGI (RPMI-8226 leukemia)
8.4 µM: TGI (BT-549 breast)
> 31.7 µM: TGI (COLO 205 colon)
71.2 µM: TGI (SF-295 CNS)
5.7 µM: TGI (HL-60(TB) leukemia)
2.56 µM: TGI (NCI-H522 lung)
9.82 µM: TGI (SNB-75 CNS)
> 100 µM: TGI (SF-268 CNS) | TGI (U251 CNS) | TGI (OVCAR-3 ovarian) | TGI (T-47D breast) | TGI (NCI-H226 lung) | TGI (DU-145 prostate) | TGI (M14 melanoma) | TGI (HT29 colon) | TGI (OVCAR-5 ovarian) | TGI (HCC-2998 colon) | TGI (UACC-62 melanoma) | TGI (UACC-257 melanoma) | TGI (PC-3 prostate) | TGI (SK-OV-3 ovarian) | TGI (UO-31 renal) | TGI (OVCAR-4 ovarian) | TGI (ACHN renal) | TGI (HCT-15 colon) | TGI (HCT-116 colon) | TGI (NCI/ADR-RES ovarian) | TGI (SK-MEL-5 melanoma) | TGI (K-562 leukemia) | TGI (SNB-19 CNS) | TGI (786-0 renal) | TGI (EKVX NSCLC) | TGI (MDA-MB-231 breast) | TGI (CAKI-1 renal) | TGI (SK-MEL-28 melanoma) | TGI (IGROV1 ovarian) | TGI (CCRF-CEM leukemia) | TGI (NCI-H460 lung) | TGI (MALME-3M melanoma) | TGI (A549 NSCLC) | TGI (KM12 colon) | TGI (OVCAR-8 ovarian) | TGI (SN12C renal) | TGI (SR leukemia) | TGI (NCI-H23 lung) | TGI (SK-MEL-2 melanoma) | TGI (MCF7 breast) | TGI (LOX IMVI melanoma) | TGI (TK-10 renal) | TGI (HOP-62 NSCLC) | TGI (MOLT-4 leukemia) | TGI (SW-620 colon)
3.46 µM: TGI (RXF 393 renal)
0.79 µM: TGI (MDA-MB-435)
active: GI50 (K-562 leukemia) 0.406 µM | GI50 (MDA-MB-435) 0.263 µM
